Target: Gonadotropin-releasing hormone receptor (Rattus norvegicus) (UniProt P30969)
Sequence (P30969 whole entry, looked up): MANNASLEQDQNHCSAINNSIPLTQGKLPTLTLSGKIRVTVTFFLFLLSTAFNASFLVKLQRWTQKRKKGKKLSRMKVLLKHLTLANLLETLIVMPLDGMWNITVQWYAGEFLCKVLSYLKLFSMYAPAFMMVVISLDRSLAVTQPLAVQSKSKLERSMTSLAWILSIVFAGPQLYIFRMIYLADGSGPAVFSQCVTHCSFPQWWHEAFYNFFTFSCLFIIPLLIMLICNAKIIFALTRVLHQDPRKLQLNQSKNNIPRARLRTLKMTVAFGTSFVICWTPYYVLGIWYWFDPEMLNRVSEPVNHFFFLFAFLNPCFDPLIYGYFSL

| Ki | Structure (SMILES) |
| --- | --- |
| 0.03 nM | CC(C)C[C@H](NC(=O)[C@@H](Cc1ccc2ccccc2c1)NC(=O)[C@H](Cc1ccc(O)cc1)NC(=O)[C@H](CO)NC(=O)[C@H](Cc1c[nH]c2ccccc12)NC(=O)[C@H](Cc1c[nH]cn1)NC(=O)[C@@H]1CCC(=O)N1)C(=O)N[C@@H](CCCN=C(N)N)C(=O)N1CCC[C@H]1C(=O)N(C)CC(N)=O [nafarelin 10SarNH2] |
| 0.03 nM | CC(C)C[C@H](NC(=O)[C@@H](Cc1ccc2ccccc2c1)NC(=O)[C@H](Cc1ccc(O)cc1)NC(=O)[C@H](CO)NC(=O)[C@H](Cc1cccc2ccccc12)NC(=O)[C@H](Cc1cnc[nH]1)NC(=O)[C@@H]1CCC(=O)N1)C(=O)N[C@@H](CCCN=C(N)N)C(=O)N1CCC[C@H]1C(=O)NCC(N)=O [nafarelin 31Nal] |
| 0.01 nM | CC(C)C[C@H](NC(=O)[C@@H](Cc1ccc2ccccc2c1)NC(=O)[C@H](Cc1ccc(O)cc1)NC(=O)[C@H](CO)NC(=O)[C@H](Cc1c[nH]c2ccccc12)NC(=O)[C@H](Cc1c[nH]cn1)NC(=O)[C@@H]1CCC(=O)N1)C(=O)N[C@@H](CCCNC(=N)N)C(=O)N1CCC[C@H]1C(=O)NCC(N)=O [nafarelin] |
